Experimental data reported in patent US11458123B2 (Arvinas, Inc., priority 2016, dated 2022).

tested on: tau protein; test: Tau protein in vitro degradation assay (Western blot, Tau-13 antibody); type: cell-based, human; conditions: SK-N-SH cells; 72 hours of incubation; tested at 300 nM, 100 nM, 33 nM and 11 nM; Western blot, Tau-13 antibody
In short: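 SK-N-SH cells, seeded ≥18 h beforehand, were incubated 72 h with tau PROTACs at 1000, 300 and 100 nM or at 300, 100, 33 and 11 nM. Lysates in protease-inhibitor buffer were resolved by SDS-PAGE; tau quantified by Western blot with Tau-13 antibody recognising all human tau forms.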

Row | SMILES | Degradation activity (tau protein remaining; highest amount of degradation observed at any dosage)
1 | Cn1c2ccncc2c2ccc(-c3ccc(O[C@H]4C[C@H](OCCOCCOCCOCC5CN(c6ccc7c(c6)C(=O)N(C6CCC(=O)NC6=O)C7=O)C5)C4)nc3)cc21 (some centres unmarked) [Compound 206, 2-(2,6-dioxopiperidin-3-yl)-5-(3-((2-(2-(2-((1r,3r)-3-((5-(5-methyl-5H-pyrido[4,3-b]indol-7-yl)pyridin-2-yl)oxy)cyclobutoxy)ethoxy)ethoxy)ethoxy)methyl)azetidin-1-yl)isoindoline-1,3-dione] | B (≤80% and >50% tau protein remaining after 72 hours of incubation with the test compound)
2 | O=C1CCC(N2C(=O)c3ccc(OCCOCCOCCOCCOCCOc4ccc(-c5ccn6c(n5)nc5ccccc56)cn4)cc3C2=O)C(=O)N1 (centres unmarked) [Compound 207, 5-((14-((5-(benzo[4,5]imidazo[1,2-a]pyrimidin-2-yl)pyridin-2-yl)oxy)-3,6,9,12-tetraoxatetradecyl)oxy)-2-(2,6-dioxopiperidin-3-yl)isoindoline-1,3-dione] | B (≤80% and >50% tau protein remaining after 72 hours of incubation with the test compound)
3 | Cn1c2ccncc2c2ccc(-c3ccc(N4CC(OCCOCCOCCOCCOc5ccc6c(c5)C(=O)N(C5CCC(=O)NC5=O)C6=O)C4)nc3)cc21 (centres unmarked) [Compound 208, 2-(2,6-dioxopiperidin-3-yl)-5-(2-(2-(2-(2-((1-(5-(5-methyl-5H-pyrido[4,3-b]indol-7-yl)pyridin-2-yl)azetidin-3-yl)oxy)ethoxy)ethoxy)ethoxy)ethoxy)isoindoline-1,3-dione] | A (≤50% tau protein remaining after 72 hours of incubation with the test compound)
4 | Cn1c2ccncc2c2ccc(-c3ccc(O[C@H]4C[C@H](OCC56CC(COCCOCCOc7ccc8c(c7)C(=O)N(C7CCC(=O)NC7=O)C8=O)(C5)C6)C4)nc3)cc21 (some centres unmarked) [Compound 209, 2-(2,6-dioxopiperidin-3-yl)-5-(2-(2-((3-(((1r,3r)-3-((5-(5-methyl-5H-pyrido[4,3-b]indol-7-yl)pyridin-2-yl)oxy)cyclobutoxy)methyl)bicyclo[1.1.1]pentan-1-yl)methoxy)ethoxy)ethoxy)isoindoline-1,3-dione] | A (≤50% tau protein remaining after 72 hours of incubation with the test compound)
5 | Cn1c2ccncc2c2ccc(N3CCN(CCCOCCOCCOCCOCCOc4ccc5c(c4)C(=O)N(C4CCC(=O)NC4=O)C5=O)CC3)cc21 (centres unmarked) [Compound 210, 2-(2,6-dioxopiperidin-3-yl)-5-((15-(4-(5-methyl-5H-pyrido[4,3-b]indol-7-yl)piperazin-1-yl)-3,6,9,12-tetraoxapentadecyl)oxy)isoindoline-1,3-dione] | C (>80% tau protein remaining after 72 hours of incubation with the test compound)
6 | Cn1c2ccncc2c2ccc(-c3ccc(OC4CC5(C4)CN(CCOCCCOC4CN(c6ccc7c(c6)C(=O)N(C6CCC(=O)NC6=O)C7=O)C4)C5)nc3)cc21 (centres unmarked) [Compound 211, 2-(2,6-dioxopiperidin-3-yl)-5-(3-(3-(2-(6-((5-(5-methyl-5H-pyrido[4,3-b]indol-7-yl)pyridin-2-yl)oxy)-2-azaspiro[3.3]heptan-2-yl)ethoxy)propoxy)azetidin-1-yl)isoindoline-1,3-dione] | C (>80% tau protein remaining after 72 hours of incubation with the test compound)
7 | Cn1c2ccncc2c2ccc(-c3ccc(O[C@H]4C[C@H](OCC#CCOCCOC5CN(c6ccc7c(c6)C(=O)N(C6CCC(=O)NC6=O)C7=O)C5)C4)nc3)cc21 (some centres unmarked) [Compound 212, 2-(2,6-dioxopiperidin-3-yl)-5-(3-(2-((4-((1r,3r)-3-((5-(5-methyl-5H-pyrido[4,3-b]indol-7-yl)pyridin-2-yl)oxy)cyclobutoxy)but-2-yn-1-yl)oxy)ethoxy)azetidin-1-yl)isoindoline-1,3-dione] | A (≤50% tau protein remaining after 72 hours of incubation with the test compound)
8 | Cn1c2ccncc2c2ccc(-c3ccc(O[C@H]4C[C@H](OCCOCCOC5CC6(C5)CN(c5ccc7c(c5)C(=O)N(C5CCC(=O)NC5=O)C7=O)C6)C4)nc3)cc21 (some centres unmarked) [Compound 213, 2-(2,6-dioxopiperidin-3-yl)-5-(6-(2-(2-((1r,3r)-3-((5-(5-methyl-5H-pyrido[4,3-b]indol-7-yl)pyridin-2-yl)oxy)cyclobutoxy)ethoxy)ethoxy)-2-azaspiro[3.3]heptan-2-yl)isoindoline-1,3-dione] | C (>80% tau protein remaining after 72 hours of incubation with the test compound)
